Results as given in article PMC13608006 (Journal of medicinal chemistry, 2018).

Key:
[1] = system: EV-A71; assay: antiviral CPE assay, anti-EV-A71 in LLC cells; assay type: cell-based, enterovirus 71 (EV-A71); settings: SI50 = CC50/EC50
[2] = system: CV-B3 (CVB3-H3); assay type: cell-based, coxsackievirus B3; settings: SI50 = CC50/EC50
[3] = system: PV-1; assay type: cell-based, poliovirus-1; settings: SI50 = CC50/EC50
[4] = in vitro; settings: human
[5] = system: CVB3-H3-C179F; assay type: cell-based, coxsackievirus B3

| Structure (SMILES) | SI50 (EV-A71 in LLC cells) [1] | SI50 (CV-B3 in HeLa cells) [2] | SI50 (PV-1 in HeLa cells) [3] | CC50 [4] | CC50 ([4]; CC50 (anti-PV-1 in HeLa cells column)) | inhibition of CVB3-H3-C179F (missense mutation in the 2C coding domain) [5] |
| --- | --- | --- | --- | --- | --- | --- |
| CC(C)n1ncc2c(C(=O)Nc3cncnc3)cc(-c3cccs3)nc21 [JX066, 1-Isopropyl-N-(pyrimidin-5-yl)-6-(thiophen-2-yl)-1H-pyrazolo[3,4-b]pyridine-4-carboxamide] | SI50: 50.0 | SI50: 25.7 | SI50: 1.8 |  |  |  |
| CC(C)n1ncc2c(C(=O)Nc3cc(C(N)=O)ccc3F)cc(-c3cccs3)nc21 [JX073, N-(5-Carbamoyl-2-fluorophenyl)-1-isopropyl-6-(thiophen-2-yl)-1H-pyrazolo[3,4-b]pyridine-4-carboxamide] | SI50: 50.0 | SI50: 23.5 | SI50: 3.8 |  |  |  |
| CC(C)n1ncc2c(C(=O)Nc3cccc(S(N)(=O)=O)c3)cc(-c3cccs3)nc21 [JX025, 1-Isopropyl-N-(3-sulfamoylphenyl)-6-(thiophen-2-yl)-1H-pyrazolo[3,4-b]pyridine-4-carboxamide] | SI50: 19.2 |  | SI50: 10.0 | > 200 µM | 50 µM |  |
| CC(C)n1ncc2c(C(=O)Nc3cccnc3)cc(-c3cccs3)nc21 [JX056, 1-Isopropyl-N-(pyridin-3-yl)-6-(thiophen-2-yl)-1H-pyrazolo-[3,4-b]pyridine-4-carboxamide] | SI50: >400.0 | SI50: 62.5 | SI50: 2.5 |  |  |  |
| CC(C)n1ncc2c(C(=O)Nc3cc(S(N)(=O)=O)ccc3F)cc(-c3cccs3)nc21 [JX068, N-(2-Fluoro-5-sulfamoylphenyl)-1-isopropyl-6-(thiophen-2-yl)-1H-pyrazolo[3,4-b]pyridine-4-carboxamide] | SI50: 50.0 | SI50: 25.7 | SI50: 2.9 |  |  |  |
| CC(C)n1ncc2c(C(=O)Nc3ccccc3F)cc(-c3cccs3)nc21 [JX001, N-(2-Fluorophenyl)-1-isopropyl-6-(thiophen-2-yl)-1H-pyrazolo[3,4-b]pyridine-4-carboxamide] | SI50: 21.7 | SI50: 8.9 | SI50: 1.8 |  |  | resistant |
| CC(C)n1ncc2c(C(=O)Nc3ccccc3F)cc(-c3cncs3)nc21 [JX010, N-(2-Fluorophenyl)-1-isopropyl-6-(thiazol-5-yl)-1H-pyrazolo[3,4-b]pyridine-4-carboxamide] | SI50: 27.0 | SI50: >60.6 |  |  |  |  |
| CC(C)n1ncc2c(C(=O)Nc3cccc(C(N)=O)c3)cc(-c3cccs3)nc21 [JX064, N-(3-Carbamoylphenyl)-1-isopropyl-6-(thiophen-2-yl)-1H-pyrazolo[3,4-b]pyridine-4-carboxamide] | SI50: 31.3 | SI50: 25.7 | SI50: 2.9 |  |  |  |
